The test system of one experiment is KG-1 cells. Kind of experiment: Measurement of fluorescence v time by flow cytometry, non-monocytic cell line. Particulars: KG-1 cells (insignificant quantities of hCE-1); FIG. 5; 3000 nM; median fluorescence intensity v time. Type of experiment: cell-based. The procedure: (§1) The degree of fluorescence of monocytic and non-monocytic cell lines following treatment with Example 1 was assessed using flow cytometry. This assessment was performed using a BD Biosciences BD FACSCanto™ Flow Cytometry System.
(§2) The cell lines are treated with a 3000 nM solution of Example 1. The resultant mixture is sampled at times 0, 1 hr, 2 hr, 4 hr and 6 hr. At each time point a sample of the cells is harvested by centrifugation, washed and allowed to rest for 30 minutes then washed again and re-suspended in a small volume for analysis by flow cytometry (FACSCanto™ A BD Biosciences) at an excitation of 488 nm blue laser line emission measured in an FITC detector using a 502 nm long pass dichroic and a 530±15 band pass filter. Data is expressed as median fluorescence intensity (MFI) for the cell population in the FITC channel, and plotted against time in a line graph. The unstained cells are set to an MFI of 100.
On the technique in general: A flow cytometer gives signals particle by particle.

For the next experiment, the system named is THP-1 cells. Kind of experiment: Measurement of fluorescence v time by flow cytometry, monocytic cell line. It counts as cell-based. Particulars: THP-1 cells (significant quantities of hCE-1); FIG. 6; 3000 nM; median fluorescence intensity v time. How it is done: as §1, §2

One compound from patent US20140010762A1, “IMAGING AGENTS” (Chroma Therapeutics Ltd, priority 2010, published 2014) can be followed below.

`O=C(OC1CCCC1)[C@@H](NCc1ccc(OCCCNc2ccc([N+](=O)[O-])c3nonc23)cc1)c1ccccc1` [Example 1, Cyclopentyl (2S)-[(4-{3-[(7-nitro-2,1,3-benzoxadiazol-4-yl)amino]propoxy}benzyl)amino](phenyl)ethanoate]: the “increase in fluorescence following treatment” value in the experiment on KG-1 cells was “low increase in fluorescence”; in the experiment with THP-1 cells it was “high increase in fluorescence”.
